Measurements from US10624897B2, “Chlorobenzene substituted azaaryl compounds” (TAIPEI MEDICAL UNIVERSITY, priority 2015, dated 2020).

Legend:
MOLT-4 = experiment: MTT assay, cell viability; type: cell-based; settings: Homo sapiens; MOLT-4, ALL, 72 hours; read-out: IC50 (μM, Mean ± SD)
Procedure: (§1) Cells were cultured in RPMI-1640 (RT-112, KMS-11, SNU-16, HT-29, HCT-116, NCI—H520, Hep3B, PLC/PRF/5, HL-60, MOLT-4) and DMEM (HepG2, MCF-7, MDA-MB-231) with 10% FBS (v/v) and Penicillin/Streptomycin (100 U/ml). FU-DDLS-1 cell line was maintained in DMEM:F12 medium with 10% FBS. LiSa-2 cell line was maintained in IMDM/RPMI-1640 in a 4:1 ratio supplemented with 10% FBS, 2 mmol/L L-glutamine, and 0.1 mg/mL gentamicin. Human umbilical vein endothelial cells (HUVECs) were grown to confluence on 1% collagen, and maintained in 90% Medium 199 with 25 U/ml heparin, 30 μg/ml endothelial cell growth supplement (ECGS) adjusted to contain 1.5 g/L sodium bicarbonate, 10% FBS and Penicillin/Streptomycin (100 U/ml) Cultures were maintained at 37° C. in a humidified atmosphere of 5% CO2/95% air.
(§2) Cells were seeded in 96-well plates (5,000 cells/well) and incubated overnight for attachment, and were then treated with indicated agents in 10% FBS-supplemented medium for 72 hours. The medium was replaced with MTT (0.5 mg/mL) at 37° C. for 1 hours. After removal of medium, the cells were lysed with 100 μL per well dimethyl sulfoxide (DMSO), and absorbance at 550 nm was measured with microplate reader. The relative cell viability (%) was expressed as a percentage relative to a DMSO control cells.

HL-60 = experiment: MTT assay, cell viability; type: cell-based; settings: Homo sapiens; HL-60, AML, 72 hours; read-out: IC50 (μM, Mean ± SD)
Procedure: as §1, §2

RT-112 = experiment: MTT assay, cell viability; type: cell-based; settings: 72 hours
Procedure: as §1, §2

HT-29 = experiment: MTT assay, cell viability; type: cell-based; settings: Homo sapiens; HT-29, Colorectal, 72 hours; read-out: IC50 (μM, Mean ± SD)
Procedure: as §1, §2

SNU-16 = experiment: MTT assay, cell viability; type: cell-based; settings: 72 hours
Procedure: as §1, §2

Hep3B = experiment: MTT assay, cell viability; type: cell-based; settings: 5 uM, 72 hours
Procedure: as §1, §2

PLC/PRF/5 = experiment: MTT assay, cell viability; type: cell-based; settings: PLC5, 5 uM, 72 hours
Procedure: as §1, §2

FGFR3(G697C) = molecular target: T1, FGFR3(G697C) (Homo sapiens, UniProt P22607, G697C); experiment: Kinase binding assay (Kd), mutant FGFR3
T1 construct: made in house; host or cells: E. coli BL21-derived host (T7 phage) or HEK-293
T1 sequence (P22607 23-806 G697C): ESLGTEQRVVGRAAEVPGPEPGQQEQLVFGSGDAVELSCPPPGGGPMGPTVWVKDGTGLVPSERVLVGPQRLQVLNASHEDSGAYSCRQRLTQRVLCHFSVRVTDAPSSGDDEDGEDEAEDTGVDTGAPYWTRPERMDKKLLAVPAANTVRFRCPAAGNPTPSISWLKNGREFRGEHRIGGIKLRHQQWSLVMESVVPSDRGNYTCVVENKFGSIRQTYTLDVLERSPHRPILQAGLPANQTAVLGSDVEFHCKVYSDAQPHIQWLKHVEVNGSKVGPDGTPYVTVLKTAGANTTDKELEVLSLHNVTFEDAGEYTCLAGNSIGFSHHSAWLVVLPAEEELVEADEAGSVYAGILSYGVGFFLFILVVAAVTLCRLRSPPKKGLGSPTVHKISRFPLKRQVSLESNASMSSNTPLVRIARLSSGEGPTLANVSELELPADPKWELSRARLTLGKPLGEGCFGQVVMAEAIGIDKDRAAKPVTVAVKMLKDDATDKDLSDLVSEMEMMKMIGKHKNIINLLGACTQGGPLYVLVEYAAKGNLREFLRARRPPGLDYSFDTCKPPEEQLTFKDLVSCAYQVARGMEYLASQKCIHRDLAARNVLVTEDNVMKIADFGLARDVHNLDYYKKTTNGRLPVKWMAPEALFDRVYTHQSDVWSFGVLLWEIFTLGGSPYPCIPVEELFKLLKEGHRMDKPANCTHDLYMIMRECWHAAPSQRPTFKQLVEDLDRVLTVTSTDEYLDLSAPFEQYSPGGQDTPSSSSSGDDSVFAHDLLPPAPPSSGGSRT
Procedure: (§3) Kinase assays. For most assays, kinase-tagged T7 phage strains were prepared in an E. coli host derived from the BL21 strain. E. coli were grown to log-phase and infected with T7 phage and incubated with shaking at 32° C. until lysis. The lysates were centrifuged and filtered to remove cell debris. The remaining kinases were produced in HEK-293 cells and subsequently tagged with DNA for qPCR detection. […] The liganded beads were blocked with excess biotin and washed with blocking buffer (SeaBlock (Pierce), 1% BSA, 0.05% Tween 20, 1 mM DTT) to remove unbound ligand and to reduce non-specific binding. […] All reactions were performed in polystyrene 96-well plates in a final volume of 0.135 ml. […] The kinase concentration in the eluates was measured by qPCR.
(§4) An 11-point 3-fold serial dilution of each test compound was prepared in 100% DMSO at 100× final test concentration and subsequently diluted to 1× in the assay (final DMSO concentration=1%). Most Kds were determined using a compound top concentration=30,000 nM.
(§5) Binding constants (Kds) were calculated with a standard dose-response curve using the Hill equation: […]
(§6) The Hill Slope was set to −1. Curves were fitted using a non-linear least square fit with the Levenberg-Marquardt algorithm.
(§7) The compound and assay method are similar to those mentioned in Example 45.

FGFR3(K650E) = molecular target: T2, FGFR3(K650E) (Homo sapiens, UniProt P22607, K650E); experiment: Kinase binding assay (Kd), mutant FGFR3
T2 construct: made in house; host or cells: E. coli BL21-derived host (T7 phage) or HEK-293
T2 sequence (P22607 23-806 K650E): as the sequence (P22607 23-806 G697C) above, with K628E, C675G counted along it
Procedure: as §3, §4, §5, §6, §7

FGFR3(V555M) = molecular target: T3, FGFR3(V555M) (Homo sapiens, UniProt P22607, V555M); experiment: Kinase binding assay (Kd), mutant FGFR3
T3 construct: made in house; host or cells: E. coli BL21-derived host (T7 phage) or HEK-293
T3 sequence (P22607 23-806 V555M): as the sequence (P22607 23-806 G697C) above, with V533M, C675G counted along it
Procedure: as §3, §4, §5, §6, §7

RET = molecular target: T4, RET (Homo sapiens, UniProt P07949); experiment: Kinase binding assay (Kd)
T4 construct: made in house; host or cells: E. coli BL21-derived host (T7 phage) or HEK-293
T4 sequence (P07949 29-1114): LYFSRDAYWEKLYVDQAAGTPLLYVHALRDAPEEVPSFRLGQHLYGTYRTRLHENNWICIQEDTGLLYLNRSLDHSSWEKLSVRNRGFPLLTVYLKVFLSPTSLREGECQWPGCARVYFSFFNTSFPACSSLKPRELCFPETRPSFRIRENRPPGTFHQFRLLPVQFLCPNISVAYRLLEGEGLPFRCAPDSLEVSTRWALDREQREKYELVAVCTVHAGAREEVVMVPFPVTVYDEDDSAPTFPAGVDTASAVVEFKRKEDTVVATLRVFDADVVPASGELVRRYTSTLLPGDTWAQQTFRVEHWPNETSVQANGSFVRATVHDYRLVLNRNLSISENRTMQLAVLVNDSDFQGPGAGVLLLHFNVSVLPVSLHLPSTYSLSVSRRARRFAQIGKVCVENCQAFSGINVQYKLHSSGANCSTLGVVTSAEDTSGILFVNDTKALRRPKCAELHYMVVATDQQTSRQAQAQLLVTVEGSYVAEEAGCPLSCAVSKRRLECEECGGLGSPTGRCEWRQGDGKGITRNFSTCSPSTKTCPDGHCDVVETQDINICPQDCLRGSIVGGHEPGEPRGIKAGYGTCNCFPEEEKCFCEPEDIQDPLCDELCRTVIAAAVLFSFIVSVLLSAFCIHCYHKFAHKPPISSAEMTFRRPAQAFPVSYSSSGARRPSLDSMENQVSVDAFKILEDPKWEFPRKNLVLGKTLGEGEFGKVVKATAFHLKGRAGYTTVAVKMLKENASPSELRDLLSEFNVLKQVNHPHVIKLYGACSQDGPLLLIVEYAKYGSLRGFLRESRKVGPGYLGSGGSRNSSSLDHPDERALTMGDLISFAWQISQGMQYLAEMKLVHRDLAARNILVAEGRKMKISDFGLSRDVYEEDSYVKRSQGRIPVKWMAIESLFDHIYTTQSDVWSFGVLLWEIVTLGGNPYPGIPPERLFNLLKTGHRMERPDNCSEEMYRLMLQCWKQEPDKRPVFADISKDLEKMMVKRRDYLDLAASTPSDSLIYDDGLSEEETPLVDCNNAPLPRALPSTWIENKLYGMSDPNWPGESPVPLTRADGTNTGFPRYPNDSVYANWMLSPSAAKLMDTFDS
Procedure: as §3, §4, §5, §6

CDK9 = molecular target: T5, CDK9 (Homo sapiens, UniProt P50750); experiment: Kinase binding assay (Kd)
T5 construct: made in house; host or cells: E. coli BL21-derived host (T7 phage) or HEK-293
Procedure: as §3, §4, §5, §6

MAPKAPK2 = molecular target: T6, MAPKAPK2 (Homo sapiens, UniProt P49137); experiment: Kinase binding assay (Kd)
T6 construct: made in house; host or cells: E. coli BL21-derived host (T7 phage) for most kinases, HEK-293 for the rest
T6 sequence (P49137 whole entry): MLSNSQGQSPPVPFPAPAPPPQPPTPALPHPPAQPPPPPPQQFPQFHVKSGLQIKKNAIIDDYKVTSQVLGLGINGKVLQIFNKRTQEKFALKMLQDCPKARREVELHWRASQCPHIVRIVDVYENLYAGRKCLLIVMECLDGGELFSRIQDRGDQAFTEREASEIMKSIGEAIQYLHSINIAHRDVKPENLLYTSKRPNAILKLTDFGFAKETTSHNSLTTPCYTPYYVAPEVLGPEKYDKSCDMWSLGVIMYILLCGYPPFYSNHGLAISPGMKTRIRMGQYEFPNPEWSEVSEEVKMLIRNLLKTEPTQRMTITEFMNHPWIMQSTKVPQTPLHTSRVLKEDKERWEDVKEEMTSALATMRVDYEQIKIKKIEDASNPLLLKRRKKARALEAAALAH
Procedure: as §3, §4, §5, §6

PIM1 = molecular target: T7, PIM1 (Homo sapiens, UniProt P11309); experiment: Kinase binding assay (Kd)
T7 construct: made in house; host or cells: E. coli BL21-derived host (T7 phage) for most kinases, HEK-293 for the rest
T7 sequence (P11309 whole entry): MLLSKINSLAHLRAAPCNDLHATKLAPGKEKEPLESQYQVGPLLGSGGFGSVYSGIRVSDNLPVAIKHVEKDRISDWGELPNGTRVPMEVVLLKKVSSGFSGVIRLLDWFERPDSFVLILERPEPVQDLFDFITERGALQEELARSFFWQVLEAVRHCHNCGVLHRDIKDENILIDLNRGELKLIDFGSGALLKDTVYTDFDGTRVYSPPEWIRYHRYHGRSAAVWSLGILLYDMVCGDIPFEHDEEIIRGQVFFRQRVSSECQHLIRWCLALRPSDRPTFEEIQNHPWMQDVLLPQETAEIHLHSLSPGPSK
Procedure: as §3, §4, §5, §6

PIM3 = molecular target: T8, PIM3 (Homo sapiens, UniProt Q86V86); experiment: Kinase binding assay (Kd)
T8 construct: made in house; host or cells: E. coli BL21-derived host (T7 phage) or HEK-293
Procedure: as §3, §4, §5, §6

FGFR2 = molecular target: T9, FGFR2 (Homo sapiens, UniProt P21802); experiment: Kinase binding assay (Kd)
T9 construct: made in house; host or cells: E. coli BL21-derived host (T7 phage) or HEK-293
Procedure: as §3, §4, §5, §6

p38-beta = molecular target: T10, p38-beta (Homo sapiens, UniProt Q15759); experiment: Kinase binding assay (Kd)
T10 construct: made in house; host or cells: E. coli BL21-derived host (T7 phage) for most kinases, HEK-293 for the rest
T10 sequence (Q15759 whole entry): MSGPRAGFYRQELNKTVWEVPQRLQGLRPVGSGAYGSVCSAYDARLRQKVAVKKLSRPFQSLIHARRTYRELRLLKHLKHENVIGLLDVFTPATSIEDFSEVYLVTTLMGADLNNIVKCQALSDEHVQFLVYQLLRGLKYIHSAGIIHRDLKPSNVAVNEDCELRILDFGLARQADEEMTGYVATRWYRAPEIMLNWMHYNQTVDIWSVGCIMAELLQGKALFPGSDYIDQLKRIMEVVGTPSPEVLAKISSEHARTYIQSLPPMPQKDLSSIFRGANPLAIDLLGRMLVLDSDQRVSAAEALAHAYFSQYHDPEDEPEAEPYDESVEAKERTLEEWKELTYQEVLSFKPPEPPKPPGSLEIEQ
Procedure: as §3, §4, §5, §6

CSF1R = molecular target: T11, CSF1R (Homo sapiens, UniProt P07333); experiment: Kinase binding assay (Kd)
T11 construct: made in house; host or cells: E. coli BL21-derived host (T7 phage) or HEK-293
Procedure: as §3, §4, §5, §6

IKK-alpha = molecular target: T12, IKK-alpha (Homo sapiens, UniProt O15111); experiment: Kinase binding assay (Kd)
T12 construct: made in house; host or cells: E. coli BL21-derived host (T7 phage) for most kinases, HEK-293 for the rest
Procedure: as §3, §4, §5, §6

PLK3 = molecular target: T13, PLK3 (Homo sapiens, UniProt Q9H4B4); experiment: Kinase binding assay (Kd)
T13 construct: made in house; host or cells: E. coli BL21-derived host (T7 phage) or HEK-293
T13 sequence (Q9H4B4 whole entry): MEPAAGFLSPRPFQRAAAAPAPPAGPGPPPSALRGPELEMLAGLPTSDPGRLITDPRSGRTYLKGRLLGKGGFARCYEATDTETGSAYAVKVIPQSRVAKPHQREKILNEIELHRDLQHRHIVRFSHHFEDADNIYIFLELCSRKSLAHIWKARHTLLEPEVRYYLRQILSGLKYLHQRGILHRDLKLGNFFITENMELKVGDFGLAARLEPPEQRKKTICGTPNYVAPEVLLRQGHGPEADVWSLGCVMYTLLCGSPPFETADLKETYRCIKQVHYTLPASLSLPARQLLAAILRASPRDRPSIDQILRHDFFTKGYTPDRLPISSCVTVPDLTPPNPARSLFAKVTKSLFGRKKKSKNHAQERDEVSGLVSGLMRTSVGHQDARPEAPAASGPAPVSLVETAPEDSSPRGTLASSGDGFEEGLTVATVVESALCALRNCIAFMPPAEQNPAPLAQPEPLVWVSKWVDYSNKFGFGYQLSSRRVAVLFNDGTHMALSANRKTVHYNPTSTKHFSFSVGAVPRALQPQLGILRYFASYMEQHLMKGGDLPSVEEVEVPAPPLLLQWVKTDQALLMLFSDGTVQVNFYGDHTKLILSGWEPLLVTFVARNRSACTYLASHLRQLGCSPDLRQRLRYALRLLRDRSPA
Procedure: as §3, §4, §5, §6

DCAMKL1 = molecular target: T14, DCAMKL1 (Homo sapiens, UniProt O15075); experiment: Kinase binding assay (Kd)
T14 construct: made in house; host or cells: E. coli BL21-derived host (T7 phage) or HEK-293
T14 sequence (O15075 whole entry): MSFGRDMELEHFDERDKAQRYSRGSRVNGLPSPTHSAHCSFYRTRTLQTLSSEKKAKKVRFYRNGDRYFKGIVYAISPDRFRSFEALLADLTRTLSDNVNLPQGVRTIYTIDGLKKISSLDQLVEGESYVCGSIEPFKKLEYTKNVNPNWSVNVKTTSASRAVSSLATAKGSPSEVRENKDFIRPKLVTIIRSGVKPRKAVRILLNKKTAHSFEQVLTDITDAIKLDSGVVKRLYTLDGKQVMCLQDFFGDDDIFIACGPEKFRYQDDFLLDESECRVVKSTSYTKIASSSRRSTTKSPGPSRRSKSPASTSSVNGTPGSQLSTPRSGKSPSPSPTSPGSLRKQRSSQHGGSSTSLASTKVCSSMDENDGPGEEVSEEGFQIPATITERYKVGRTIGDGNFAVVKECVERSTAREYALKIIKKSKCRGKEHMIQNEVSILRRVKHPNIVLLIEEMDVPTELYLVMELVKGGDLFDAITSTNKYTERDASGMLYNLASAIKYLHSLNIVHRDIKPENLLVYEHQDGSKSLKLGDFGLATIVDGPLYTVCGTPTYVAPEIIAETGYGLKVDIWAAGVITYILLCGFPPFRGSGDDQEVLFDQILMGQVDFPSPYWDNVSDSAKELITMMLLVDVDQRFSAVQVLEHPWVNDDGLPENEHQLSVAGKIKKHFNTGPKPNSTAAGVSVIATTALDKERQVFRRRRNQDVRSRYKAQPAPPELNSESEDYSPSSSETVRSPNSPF
Procedure: as §3, §4, §5, §6

RAF1 = molecular target: T15, RAF1 (Homo sapiens, UniProt P04049); experiment: Kinase binding assay (Kd)
T15 construct: made in house; host or cells: E. coli BL21-derived host (T7 phage) or HEK-293
Procedure: as §3, §4, §5, §6

ZAP70 = molecular target: T16, ZAP70 (Homo sapiens, UniProt P43403); experiment: Kinase binding assay (Kd)
T16 construct: made in house; host or cells: E. coli BL21-derived host (T7 phage) or HEK-293
T16 sequence (P43403 whole entry): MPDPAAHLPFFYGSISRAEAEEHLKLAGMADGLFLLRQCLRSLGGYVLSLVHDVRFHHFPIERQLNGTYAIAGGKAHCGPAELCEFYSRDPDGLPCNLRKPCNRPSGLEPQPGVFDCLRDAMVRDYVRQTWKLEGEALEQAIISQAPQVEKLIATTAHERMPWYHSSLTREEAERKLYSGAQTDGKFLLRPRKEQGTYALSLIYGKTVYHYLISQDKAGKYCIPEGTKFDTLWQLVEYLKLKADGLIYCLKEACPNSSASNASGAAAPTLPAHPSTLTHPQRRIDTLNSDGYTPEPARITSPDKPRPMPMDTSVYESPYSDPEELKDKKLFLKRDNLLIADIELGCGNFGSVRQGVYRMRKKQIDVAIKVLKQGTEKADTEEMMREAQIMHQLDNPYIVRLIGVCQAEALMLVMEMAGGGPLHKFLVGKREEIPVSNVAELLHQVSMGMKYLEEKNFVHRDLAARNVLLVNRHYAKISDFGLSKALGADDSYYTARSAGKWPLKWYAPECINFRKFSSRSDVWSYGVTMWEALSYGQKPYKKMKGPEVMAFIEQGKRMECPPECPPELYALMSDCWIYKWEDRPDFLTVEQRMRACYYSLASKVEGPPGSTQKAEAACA
Procedure: as §3, §4, §5, §6

EGFR = molecular target: T17, EGFR (Homo sapiens, UniProt P00533); experiment: Kinase binding assay (Kd)
T17 construct: made in house; host or cells: E. coli BL21-derived host (T7 phage) or HEK-293
Procedure: as §3, §4, §5, §6

For `CCN1CCN(c2ccc(Nc3ncnc(N(C)C(=O)Nc4c(Cl)c(OC)c(Cl)c(OC)c4Cl)n3)cc2)CC1` [MPT0L145, 1-(4-((4-(4-ethylpiperazin-1-yl)phenyl)amino)-1,3,5-triazin-2-yl)-1-methyl-3-(2,4,6-trichloro-3,5-dimethoxyphenyl)urea], the IC50 (MOLT-4) was 3.7 ± 0.2 µM, the IC50 (HL-60) was 4.72 ± 1.46 µM and the “Viability (% of control cells) RT-112 (5 uM) Mean” value (RT-112; RT-112, 5 uM) was 33.4 % of control cells. For the same compound, the “Viability (% of control cells) RT-112 (10 uM) Mean” value (RT-112; RT-112, 10 uM) was 8.5 % of control cells, the IC50 (HT-29) was 2.49 ± 0.29 µM and the “Viability (% of control cells) SNU-16 (5 uM) Mean” value (SNU-16) was 36.9 % of control cells. For the same compound, the “Viability (% of control cells) Hep3B (5 uM) Mean” value (Hep3B) was 66.2 % of control cells, the “Viability (% of control cells) PLC5 (5 uM) Mean” value (PLC/PRF/5) was 20.6 % of control cells and the Kd (FGFR3(G697C)) was 0.39 µM. The Kd (FGFR3(K650E)) was 0.24 µM, the Kd (FGFR3(V555M)) was over 10 µM and the Kd (RET) was over 10 µM. It also gave a Kd (CDK9) of over 10 µM, a Kd (MAPKAPK2) of over 10 µM and a Kd (PIM1) of over 10 µM. The Kd (PIM3) was over 10 µM, the Kd (FGFR2) was 0.67 µM and the Kd (p38-beta) was over 10 µM. For the same compound, the Kd (CSF1R) was 0.34 µM, the Kd (IKK-alpha) was over 10 µM and the Kd (PLK3) was over 10 µM. For the same compound, the Kd (DCAMKL1) was over 10 µM, the Kd (RAF1) was over 10 µM and the Kd (ZAP70) was over 10 µM. It also gave a Kd (EGFR) of over 10 µM.
